How the values were obtained:
[1] = Dissolution test, USP apparatus II (Paddle Method) with sinkers, HPLC; assay type: physicochemical
Method: Dissolution Methods and Assay
Dissolution medium such as 0.1N HCl, phosphate buffer (pH 4.5) and phosphate buffer (pH 6.8) were prepared following USP Method. 0.3% Tween 80 was added into the medium to help solubilize the active ingredients. Dissolution conditions were summarized as in the following. Dissolution samples were analyzed by HPLC method.
Apparatus: USP apparatus II (Paddle Method) with sinkers.
Medium: 0.1N HCl, Phosphate Buffer phosphate buffer (pH 4.5) or Phosphate Buffer phosphate buffer (pH 6.8).
Filter: 10 μm HDPE full flow filter tips

[2] = Long term stability of composition of pitavastatin calcium and ezetimibe (25° C./60% RH); assay type: physicochemical; settings: Example 5 composition, Alu-alu blisters
Method: The composition of pitavastatin calcium and ezetimibe prepared in Example 5 of the present disclosure were packed in Alu-alu blisters and stored under long term stability (25° C./60% RH). The assay of pitavastatin calcium and ezetimibe as well as the impurities were measured.

[3] = test system: nephrectomized rats fed high-cholesterol; settings: cited from earlier work
[4] = test system: chronic kidney disease patients; settings: ezetimibe 10 mg/day co-administered with pitavastatin calcium 2 mg/day; cited from earlier work
[5] = Example 1 single layered tablet, 5 min
[6] = Example 1 single layered tablet, 10 min
[7] = Example 1 single layered tablet, 15 min
[8] = Example 1 single layered tablet, 30 min
[9] = Example 1 single layered tablet, 45 min
[10] = Example 2 double layered tablet, 5 min
[11] = Example 2 double layered tablet, 10 min
[12] = Example 2 double layered tablet, 15 min
[13] = Example 2 double layered tablet, 30 min
[14] = Example 2 double layered tablet, 45 min
[15] = pellets in one capsule (Example 5), 5 min
[16] = pellets in one capsule (Example 5), 10 min
[17] = pellets in one capsule (Example 5), 15 min
[18] = pellets in one capsule (Example 5), 20 min
[19] = pellets in one capsule (Example 5), 30 min
[20] = pellets in one capsule (Example 5), 45 min

Compound: O=C1[C@H](CC[C@H](O)c2ccc(F)cc2)[C@@H](c2ccc(O)cc2)N1c1ccc(F)cc1 [Ezetimibe, ezetimibe]
- % Released into 0.1 N HCl with 0.3% Tween 80 at sampling time (min) [1, 5]: 56%
- % Released into Phosphate Buffer (pH 6.8) with 0.3% Tween 80 at sampling time (min) [1, 5]: 54%
- % Released into 0.1 N HCl with 0.3% Tween 80 at sampling time (min) [1, 6]: 70%
- % Released into Phosphate Buffer (pH 6.8) with 0.3% Tween 80 at sampling time (min) [1, 6]: 77%
- % Released into 0.1 N HCl with 0.3% Tween 80 at sampling time (min) [1, 7]: 77%
- % Released into Phosphate Buffer (pH 6.8) with 0.3% Tween 80 at sampling time (min) [1, 7]: 86%
- % Released into 0.1 N HCl with 0.3% Tween 80 at sampling time (min) [1, 8]: 86%
- % Released into Phosphate Buffer (pH 6.8) with 0.3% Tween 80 at sampling time (min) [1, 8]: 94%
- % Released into 0.1 N HCl with 0.3% Tween 80 at sampling time (min) [1, 9]: 91%
- % Released into Phosphate Buffer (pH 6.8) with 0.3% Tween 80 at sampling time (min) [1, 9]: 96%
- % Released into 0.1 N HCl with 0.3% Tween 80 at sampling time (min) [1, 10]: 30%
- % Released into Phosphate Buffer (pH 6.8) with 0.3% Tween 80 at sampling time (min) [1, 10]: 42%
- % Released into 0.1 N HCl with 0.3% Tween 80 at sampling time (min) [1, 11]: 56%
- % Released into Phosphate Buffer (pH 6.8) with 0.3% Tween 80 at sampling time (min) [1, 11]: 72%
- % Released into 0.1 N HCl with 0.3% Tween 80 at sampling time (min) [1, 12]: 67%
- % Released into Phosphate Buffer (pH 6.8) with 0.3% Tween 80 at sampling time (min) [1, 12]: 80%
- % Released into 0.1 N HCl with 0.3% Tween 80 at sampling time (min) [1, 13]: 79%
- % Released into Phosphate Buffer (pH 6.8) with 0.3% Tween 80 at sampling time (min) [1, 13]: 88%
- % Released into 0.1 N HCl with 0.3% Tween 80 at sampling time (min) [1, 14]: 83%
- % Released into Phosphate Buffer (pH 6.8) with 0.3% Tween 80 at sampling time (min) [1, 14]: 91%
- % Released into 0.1 N HCl with 0.3% Tween 80 at sampling time (min) [1, 15]: 71%
- % Released into Phosphate Buffer (pH 4.5) with 0.3% Tween 80 at sampling time (min) [1, 15]: 64%
- % Released into Phosphate Buffer (pH 6.8) with 0.3% Tween 80 at sampling time (min) [1, 15]: 69%
- % Released into 0.1 N HCl with 0.3% Tween 80 at sampling time (min) [1, 16]: 95%
- % Released into Phosphate Buffer (pH 4.5) with 0.3% Tween 80 at sampling time (min) [1, 16]: 99%
- % Released into Phosphate Buffer (pH 6.8) with 0.3% Tween 80 at sampling time (min) [1, 16]: 96%
- % Released into 0.1 N HCl with 0.3% Tween 80 at sampling time (min) [1, 17]: 99%
- % Released into Phosphate Buffer (pH 4.5) with 0.3% Tween 80 at sampling time (min) [1, 17]: 103%
- % Released into Phosphate Buffer (pH 6.8) with 0.3% Tween 80 at sampling time (min) [1, 17]: 102%
- % Released into 0.1 N HCl with 0.3% Tween 80 at sampling time (min) [1, 18]: 100%
- % Released into Phosphate Buffer (pH 4.5) with 0.3% Tween 80 at sampling time (min) [1, 18]: 104%
- % Released into Phosphate Buffer (pH 6.8) with 0.3% Tween 80 at sampling time (min) [1, 18]: 103%
- % Released into 0.1 N HCl with 0.3% Tween 80 at sampling time (min) [1, 19]: 101%
- % Released into Phosphate Buffer (pH 4.5) with 0.3% Tween 80 at sampling time (min) [1, 19]: 105%
- % Released into Phosphate Buffer (pH 6.8) with 0.3% Tween 80 at sampling time (min) [1, 19]: 104%
- % Released into 0.1 N HCl with 0.3% Tween 80 at sampling time (min) [1, 20]: 101%
- % Released into Phosphate Buffer (pH 4.5) with 0.3% Tween 80 at sampling time (min) [1, 20]: 105%
- % Released into Phosphate Buffer (pH 6.8) with 0.3% Tween 80 at sampling time (min) [1, 20]: 104%
- Assay (%) ([2]; 3 Months): 99.5%
- Impurities (%), Major ([2]; 3 Months): 0.06%
- Impurities (%), Total ([2]; 3 Months): 0.06%
- Assay (%) ([2]; 6 Months): 101%
- Impurities (%), Major ([2]; 6 Months): 0.06%
- Impurities (%), Total ([2]; 6 Months): 0.06%
- Assay (%) ([2]; 9 Months): 102.9%
- Impurities (%), Major ([2]; 9 Months): 0.06%
- Impurities (%), Total ([2]; 9 Months): 0.06%
- Assay (%) ([2]; 12 Months): 99.7%
- Impurities (%), Major ([2]; 12 Months): 0.06%
- Impurities (%), Total ([2]; 12 Months): 0.06%
- Assay (%) ([2]; Initial): 100%
- Impurities (%), Major ([2]; Initial): 0.06%
- Impurities (%), Total ([2]; Initial): 0.06%
- Kidney dysfunction / kidney damage [3]: confers renoprotective effects
- Proteinuria-lowering effects [4]: enhances proteinuria-lowering effects of pitavastatin calcium
